Laboratory results taken from publication PMC9530963, “A cathelicidin antimicrobial peptide from Hydrophis cyanocinctus inhibits Zika virus infection by downregulating expression of a viral entry factor” (The Journal of Biological Chemistry, 2022).

Assays:
COX-2 = test: Enzymatic activity of COX-2 (inhibitor screening kit); type: biochemical; conditions: 10 μM, incubated with COX-2 at 37 °C for 10 min
Procedure: Figure 6 Hc-CATH downregulates AXL via inhibiting COX-2/PGE2/AC/PKA pathway.A, effect of Hc-CATH on COX-2 protein level. A549 cells were incubated with Hc-CATH (1.25, 2.5, or 5 μM) or PBS (solvent of Hc-CATH) at 37 °C for 24 h, COX-2 protein level was examined by Western blot (upper panel) and analyzed by ImageJ (lower panel). B, effect of Hc-CATH on the enzymatic activity of COX-2. Hc-CATH (1.25, 2.5, 5, and 10 μM) or PBS was incubated with COX-2. After incubation at 37 °C for 10 min, the enzymatic activity of COX-2 was detected by enzyme activity inhibitor screening kit. Celecoxib (COX-2 inhibitor, 100 nM) was used as positive control. C, effect of Hc-CATH on PGE2 production. A549 cells were incubated with Hc-CATH (5 μM) at 37 °C. After incubation for 24 h, the level of PGE2 in the cell supernatant was detected by ELISA. D and E, effect of AC (D) and PKA (E) on Hc-CATH-induced AXL downregulation. […] After incubation for 24 h, AXL protein level was examined by Western blot (upper panel of D and E) and analyzed by ImageJ (lower panel of D and E). ns, not significant, ∗∗p < 0.01, and ∗∗∗p < 0.001.
The effect of Hc-CATH on the enzymatic activity of COX-2 was detected by enzyme activity inhibitor screening kit. […] After incubation at 37 °C for 10 min, the enzymatic activity of COX-2 was detected by the kit. […]

ZIKV [1] = test: ZIKV replication stage, Vero cells (peptide added after infection); type: cell-based, ZIKV strain PRVABC59; conditions: 2.5 μM added after 2 h ZIKV infection (MOI = 1), 48 h, relative to PBS
Procedure: B–I, Vero (B–G), A549 (H), or U251 (I) cells were incubated with ZIKV (MOI = 1) at 37 °C for 2 h, washed with PBS, and transferred with fresh DMEM containing 2% FBS and Hc-CATH (2.5 μM), AC5 (2.5 μM), LL-37 (2.5 μM), or PBS (solvent of peptide). After culture at 37 °C for 48 h, intracellular ZIKV RNA (B), NS3 protein (C, D, H, and I), E protein level (E, the scale bar represents 50 μm), and extracellular ZIKV titer (F and G) were detected by qPCR, Western blot, immunofluorescence staining, and plaque-forming assay, respectively.
Vero cells were incubated with ZIKV (MOI = 1) at 37 °C for 2 h, washed three times with PBS, and transferred with fresh DMEM containing 2% FBS and Hc-CATH (2.5 μM), AC5 (2.5 μM), LL-37 (2.5 μM), or PBS. After culture at 37 °C for 48 h, intracellular ZIKV RNA, NS3 protein, E protein, and extracellular ZIKV titer were detected by qPCR, WB, IF, and plaque-forming assay, respectively. The effect of Hc-CATH on ZIKV replication stage was further tested in A549 and U251 cells under the same condition, and intracellular ZIKV NS3 protein was detected by WB.

ZIKV [2] = test: Prophylactic efficacy against ZIKV infection in mice; type: in vivo
ZIKV [3] = conditions: i.v. peptide 2 h after i.v. ZIKV 10^6 PFU/mouse, qPCR
Source text: At 4, 8, and 3 days post ZIKV inoculation, C57BL/6J mice, Ifnar1^−/− mice, and pregnant C57BL/6J mice were sacrificed, respectively. Tissues and fetal mice were collected for testing ZIKV RNA by qPCR. ns, not significant, ∗p < 0.05, ∗∗p < 0.01, and ∗∗∗p < 0.001. Hc-CATH, a cathelicidin antimicrobial peptide identified from the sea snake Hydrophis cyanocinctus; PFU, plaque-forming unit; qPCR, quantitative PCR; ZIKV, Zika virus.
To evaluate the therapeutic efficacy of Hc-CATH against ZIKV infection, C57BL/6J mice, Ifnar1^−/− mice, and pregnant C57BL/6J mice were intravenously administrated with Hc-CATH at 2 h after intravenous injection of ZIKV (10^6 PFU/mouse). C57BL/6J mice, Ifnar1^−/− mice, and pregnant C57BL/6J mice were sacrificed at 4, 8, and 3 days post ZIKV inoculation, respectively. Tissues and fetal mice were collected for testing ZIKV RNA level by qPCR.

[4] = design: method as in PMID 26013823; conditions: cited from earlier work

For “KFFKRLLKSVRRAVKKFRKKPRLIGLSTLL [Hc-CATH, cathelicidin antimicrobial peptide identified from the sea snake Hydrophis cyanocinctus]”, the “inhibitory rate against COX-2 activity” value (COX-2) was “about 80%”, the “intracellular ZIKV RNA, NS3 protein, E protein, extracellular ZIKV titer, peptide maintained after infection” value (ZIKV [1]) was “did not reduce” and the “anti-ZIKV efficacy in vivo compared with positive peptides” value (ZIKV [2]; C57BL/6J mice, prophylactic and therapeutic (Figs. 11E and 12E)) was “comparable with or even better than that of AC5 and LL-37”. The “ZIKV replication in C57BL/6J mice, prophylactic” value (ZIKV [2]; i.v. peptide 2 h before i.v. ZIKV 10^6 PFU/mouse, 4 days, tissue ZIKV RNA, qPCR) was “significantly decreased ZIKV replication”, the “ZIKV replication in Ifnar1−/− mice, prophylactic” value (ZIKV [2]; i.v. peptide 2 h before i.v. ZIKV 10^6 PFU/mouse, 8 days, tissue ZIKV RNA, qPCR) was “significantly decreased ZIKV replication” and the “ZIKV replication in fetal placenta and fetal mice, prophylactic” value (ZIKV [2]; pregnant C57BL/6J mice, i.v. peptide 2 h before i.v. ZIKV 10^6 PFU/mouse, 3 days, qPCR) was “significantly decreased ZIKV replication”. For the same sequence, the “ZIKV replication in C57BL/6J mice, therapeutic” value (ZIKV [3]; 4 days, tissue ZIKV RNA) was “significantly attenuated ZIKV replication”, the “ZIKV replication in Ifnar1−/− mice, therapeutic” value (ZIKV [3]; 8 days, tissue ZIKV RNA) was “significantly attenuated ZIKV replication” and the “ZIKV replication in fetal placenta and fetal mice, therapeutic” value (ZIKV [3]; pregnant C57BL/6J mice, 3 days) was “significantly attenuated ZIKV replication”. For the same sequence, the anti-inflammatory activity [4] was “potent anti-inflammatory activity”.
